Assay results as given in patent US10597388B2, “Pyridazinone herbicides” (FMC CORPORATION, priority 2014, dated 2020).

Assays:
Assay type in all cases: in vivo
[1] = system: barnyardgrass (Echinochloa crus-galli); experiment: Test C greenhouse herbicide test, pre- and postemergence; settings: for Plant response rating, Barnyardgrass: Postemergence; for Barnyardgrass plant response rating: postemergence, 62 g ai/ha
Procedure, shortened: (§1)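 Two application timings: at sowing into a soil/sand blend, and on 2–18 cm seedlings in peat-vermiculite potting mix. A non-phytotoxic, surfactant-containing solvent carried the compounds. Plants were compared with controls and rated visually on 0–100 after 13–15 d.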

[2] = system: blackgrass (Alopecurus myosuroides); experiment: as above; settings: for Plant response rating, Blackgrass: Postemergence; for Blackgrass plant response rating: postemergence, 62 g ai/ha
Procedure, shortened: as §1

corn (Zea mays) = experiment: as above; settings: for Plant response rating, Corn: Postemergence; for Corn plant response rating: postemergence, 62 g ai/ha
Procedure, shortened: as §1

[3] = system: crabgrass, large (large crabgrass, Digitaria sanguinalis); experiment: as above; settings: for Plant response rating, Crabgrass, Large: Postemergence; for Crabgrass, Large plant response rating: postemergence, 62 g ai/ha
Procedure, shortened: as §1

[4] = system: foxtail, giant (giant foxtail, Setaria faberii); experiment: as above; settings: Postemergence
Procedure, shortened: as §1

[5] = system: galium (catchweed bedstraw, Galium aparine); experiment: as above; settings: Postemergence
Procedure, shortened: as §1

[6] = system: johnsongrass (Sorghum halepense); experiment: as above; settings: Postemergence
Procedure, shortened: as §1

[7] = system: morningglory (Ipomoea coccinea); experiment: as above; settings: Postemergence
Procedure, shortened: as §1

[8] = system: oilseed rape (Brassica napus); experiment: as above; settings: Postemergence
Procedure, shortened: as §1

[9] = system: pigweed (Amaranthus retroflexus); experiment: as above; settings: Postemergence
Procedure, shortened: as §1

[10] = system: ragweed (common ragweed, Ambrosia elatior); experiment: as above; settings: Postemergence
Procedure, shortened: as §1

soybean (Glycine max) = experiment: as above; settings: Postemergence
Procedure, shortened: as §1

[11] = system: velvetleaf (Abutilon theophrasti); experiment: as above; settings: Postemergence
Procedure, shortened: as §1

[12] = system: waterhemp (common waterhemp, Amaranthus rudis); experiment: as above; settings: Postemergence
Procedure, shortened: as §1

[13] = system: wheat (winter wheat, Triticum aestivum); experiment: as above; settings: Postemergence
Procedure, shortened: as §1

kochia (Kochia scoparia) = experiment: Test C greenhouse herbicide test, postemergence; settings: Postemergence
Procedure, shortened: (§2)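 Ratings are visual scores from 0 (no effect) to 100 (complete control), made against controls 13–15 d after treatment. Postemergence sprays were applied in the greenhouse to plants 2–18 cm tall (1- to 4-leaf stage) in peat-moss/vermiculite potting medium.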

[14] = system: oat, wild (wild oat, Avena fatua); experiment: Test C greenhouse herbicide test, postemergence; settings: Postemergence
Procedure, shortened: as §2

[15] = 31 g ai/ha, scale 0 to 100 (0 no effect, 100 complete control)
[16] = 125 g ai/ha, scale 0 to 100, 0 is no effect, 100 is complete control
[17] = 250 g ai/ha, scale 0 to 100, 0 no effect, 100 complete control, 13 to 15 d
[18] = scale 0 to 100, 0 no effect, 100 complete control

`Cc1nn(C)c(=O)c(-c2cc(F)cc3ccccc23)c1OS(C)(=O)=O` [Compound 115] was tested, and the “Plant response rating, Barnyardgrass” value [1, 15] was 10, the “Plant response rating, Barnyardgrass” value [1, 16] was 35 and the “Plant response rating, Barnyardgrass” value [1, 17] was 45. For the same compound, the “Barnyardgrass plant response rating” value [1, 18] was 20, the “Plant response rating, Blackgrass” value [2, 15] was 0 and the “Plant response rating, Blackgrass” value [2, 16] was 20. The “Plant response rating, Blackgrass” value [2, 17] was 35, the “Blackgrass plant response rating” value [2, 18] was 10 and the “Plant response rating, Corn” value (corn (Zea mays); [15]) was 5. For the same compound, the “Plant response rating, Corn” value (corn (Zea mays); [16]) was 5, the “Plant response rating, Corn” value (corn (Zea mays); [17]) was 15 and the “Corn plant response rating” value (corn (Zea mays); [18]) was 5. The “Plant response rating, Crabgrass, Large” value [3, 15] was 10, the “Plant response rating, Crabgrass, Large” value [3, 16] was 20 and the “Plant response rating, Crabgrass, Large” value [3, 17] was 25. The “Crabgrass, Large plant response rating” value [3, 18] was 20, the “Plant response rating, Foxtail, Giant” value [4, 15] was 5 and the “Plant response rating, Foxtail, Giant” value [4, 16] was 20. For the same compound, the “Plant response rating, Foxtail, Giant” value [4, 17] was 35, the “Plant response rating, Galium” value [5, 15] was 85 and the “Plant response rating, Galium” value [5, 16] was 95. For the same compound, the “Plant response rating, Galium” value [5, 17] was 95, the “Plant response rating, Johnsongrass” value [6, 15] was 5 and the “Plant response rating, Johnsongrass” value [6, 16] was 10. For the same compound, the “Plant response rating, Johnsongrass” value [6, 17] was 20, the “Plant response rating, Morningglory” value [7, 15] was 55 and the “Plant response rating, Morningglory” value [7, 16] was 95. The “Plant response rating, Morningglory” value [7, 17] was 100, the “Plant response rating, Oilseed Rape” value [8, 15] was 0 and the “Plant response rating, Oilseed Rape” value [8, 16] was 0. For the same compound, the “Plant response rating, Oilseed Rape” value [8, 17] was 0, the “Plant response rating, Pigweed” value [9, 15] was 30 and the “Plant response rating, Pigweed” value [9, 16] was 70. For the same compound, the “Plant response rating, Pigweed” value [9, 17] was 90, the “Plant response rating, Ragweed” value [10, 15] was 60 and the “Plant response rating, Ragweed” value [10, 16] was 95. The “Plant response rating, Ragweed” value [10, 17] was 98, the “Plant response rating, Soybean” value (soybean (Glycine max); [15]) was 10 and the “Plant response rating, Soybean” value (soybean (Glycine max); [16]) was 20. For the same compound, the “Plant response rating, Soybean” value (soybean (Glycine max); [17]) was 65, the “Plant response rating, Velvetleaf” value [11, 15] was 15 and the “Plant response rating, Velvetleaf” value [11, 16] was 70. The “Plant response rating, Velvetleaf” value [11, 17] was 65, the “Plant response rating, Waterhemp” value [12, 15] was 65 and the “Plant response rating, Waterhemp” value [12, 16] was 90. For the same compound, the “Plant response rating, Waterhemp” value [12, 17] was 90, the “Plant response rating, Wheat” value [13, 15] was 0 and the “Plant response rating, Wheat” value [13, 16] was 0. For the same compound, the “Plant response rating, Wheat” value [13, 17] was 5, the “Plant response rating, Kochia” value (kochia (Kochia scoparia); [15]) was 70 and the “Plant response rating, Kochia” value (kochia (Kochia scoparia); [16]) was 90. For the same compound, the “Plant response rating, Kochia” value (kochia (Kochia scoparia); [17]) was 90, the “Plant response rating, Oat, Wild” value [14, 15] was 55 and the “Plant response rating, Oat, Wild” value [14, 16] was 80. For the same compound, the “Plant response rating, Oat, Wild” value [14, 17] was 90.

`Cc1nn(C)c(=O)c(-c2ccc(F)c3ccccc23)c1OC(=O)CC(F)(F)F` [Compound 123] was tested, and the “Plant response rating, Barnyardgrass” value [1, 15] was 20, the “Plant response rating, Barnyardgrass” value [1, 16] was 40 and the “Plant response rating, Barnyardgrass” value [1, 17] was 70. For the same compound, the “Barnyardgrass plant response rating” value [1, 18] was 25, the “Plant response rating, Blackgrass” value [2, 15] was 15 and the “Plant response rating, Blackgrass” value [2, 16] was 45. The “Plant response rating, Blackgrass” value [2, 17] was 45, the “Blackgrass plant response rating” value [2, 18] was 35 and the “Plant response rating, Corn” value (corn (Zea mays); [15]) was 10. The “Plant response rating, Corn” value (corn (Zea mays); [16]) was 20, the “Plant response rating, Corn” value (corn (Zea mays); [17]) was 20 and the “Corn plant response rating” value (corn (Zea mays); [18]) was 15. The “Plant response rating, Crabgrass, Large” value [3, 15] was 10, the “Plant response rating, Crabgrass, Large” value [3, 16] was 30 and the “Plant response rating, Crabgrass, Large” value [3, 17] was 75. For the same compound, the “Crabgrass, Large plant response rating” value [3, 18] was 35, the “Plant response rating, Foxtail, Giant” value [4, 15] was 20 and the “Plant response rating, Foxtail, Giant” value [4, 16] was 35. The “Plant response rating, Foxtail, Giant” value [4, 17] was 80, the “Plant response rating, Galium” value [5, 15] was 95 and the “Plant response rating, Galium” value [5, 16] was 95. The “Plant response rating, Galium” value [5, 17] was 95, the “Plant response rating, Johnsongrass” value [6, 15] was 5 and the “Plant response rating, Johnsongrass” value [6, 16] was 20. For the same compound, the “Plant response rating, Johnsongrass” value [6, 17] was 25, the “Plant response rating, Morningglory” value [7, 15] was 95 and the “Plant response rating, Morningglory” value [7, 16] was 98. For the same compound, the “Plant response rating, Morningglory” value [7, 17] was 100, the “Plant response rating, Oilseed Rape” value [8, 15] was 0 and the “Plant response rating, Oilseed Rape” value [8, 16] was 0. The “Plant response rating, Oilseed Rape” value [8, 17] was 5, the “Plant response rating, Pigweed” value [9, 15] was 65 and the “Plant response rating, Pigweed” value [9, 16] was 80. For the same compound, the “Plant response rating, Pigweed” value [9, 17] was 98, the “Plant response rating, Ragweed” value [10, 15] was 75 and the “Plant response rating, Ragweed” value [10, 16] was 95. For the same compound, the “Plant response rating, Ragweed” value [10, 17] was 98, the “Plant response rating, Soybean” value (soybean (Glycine max); [15]) was 10 and the “Plant response rating, Soybean” value (soybean (Glycine max); [16]) was 20. For the same compound, the “Plant response rating, Soybean” value (soybean (Glycine max); [17]) was 65, the “Plant response rating, Velvetleaf” value [11, 15] was 65 and the “Plant response rating, Velvetleaf” value [11, 16] was 85. For the same compound, the “Plant response rating, Velvetleaf” value [11, 17] was 95, the “Plant response rating, Waterhemp” value [12, 15] was 80 and the “Plant response rating, Waterhemp” value [12, 16] was 100. The “Plant response rating, Waterhemp” value [12, 17] was 100, the “Plant response rating, Wheat” value [13, 15] was 5 and the “Plant response rating, Wheat” value [13, 16] was 15. The “Plant response rating, Wheat” value [13, 17] was 20, the “Plant response rating, Kochia” value (kochia (Kochia scoparia); [15]) was 95 and the “Plant response rating, Kochia” value (kochia (Kochia scoparia); [16]) was 95. The “Plant response rating, Kochia” value (kochia (Kochia scoparia); [17]) was 98, the “Plant response rating, Oat, Wild” value [14, 15] was 70 and the “Plant response rating, Oat, Wild” value [14, 16] was 90. For the same compound, the “Plant response rating, Oat, Wild” value [14, 17] was 95.
